The results in this text go back to PubChem BioAssay (NCI).

Holding throughout (experiment): NCI tumour cell line growth inhibition, 48 h
The subject of experiment [1] is SF-295 CNS.
Experiment [2] concerns OVCAR-4 ovarian.
In experiment [3] the test system is COLO 205 colon.
For experiment [4], the system named is MALME-3M melanoma.
The test system of experiment [5] is MOLT-4 leukemia.
Experiment [6] concerns MCF7 breast.
For experiment [7], the system named is HCT-15 colon.
For experiment [8], the system named is SK-OV-3 ovarian.
Experiment [9] concerns HT29 colon.
The subject of experiment [10] is MDA-MB-231 breast.
For experiment [11], the system named is PC-3 prostate.
Experiment [12] relates to LOX IMVI melanoma.
Experiment [13] deals with HCT-116 colon.
Experiment [14] deals with MDA-MB-435.
The test system of experiment [15] is HOP-62 NSCLC.
For experiment [16], the system named is ACHN renal.
For experiment [17], the system named is NCI-H23 lung.
The subject of experiment [18] is IGROV1 ovarian.
Experiment [19] has as its system U251 CNS.

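Values below derive from 48-hour exposures of cells grown in 96-well plates, with endpoints linearly interpolated between the two concentrations bracketing the appropriate inhibition level. GI50 is the concentration that inhibits growth by half. The concentration for full growth arrest is given as TGI.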

For `c1ccc2c3c([nH]c2c1)C1c2[nH]c4ccccc4c2CCN1CC3`, the TGI in [1] was determined as 34.3 µM; in [2], 18.7 µM; in experiment [3], 35.2 µM; in [4], 30 µM; in [5], 42.1 µM; in experiment [6], 30.8 µM. Further, the TGI worked out at 26.9 µM in experiment [7]; 27.1 µM in [8]; 26.7 µM in experiment [9]; 36.6 µM in experiment [10]; 27.1 µM in experiment [11]; 34.8 µM in [12]. The TGI in experiment [13] came to 23.3 µM; in [14], 33.5 µM; in [15] it was 27.8 µM; in [16], 27.1 µM; in experiment [17] it was 28.2 µM; in [18] it was 31.1 µM.

For `CSc1nc2c(N)ncnc2n1C`, the TGI in experiment [1], in [2], in experiment [3], in [4], in experiment [5] and in experiment [6] was > 100 µM throughout. Moreover, the TGI in experiment [7], in experiment [8], in [9], in experiment [10], in experiment [11] and in experiment [12] was > 100 µM each time. Also, the TGI in experiment [13], in experiment [14], in [15], in experiment [16], in experiment [19] and in [18] was > 100 µM in each case.

Regarding `CN(C)c1ccc(/C=C(\NC(=O)c2ccccc2)C(=O)Nc2ccccc2C(=O)O)cc1`, the TGI in [1], in [3], in experiment [4], in [5], in experiment [6] and in [7] was > 100 µM throughout. The TGI in [8], in experiment [9], in [10], in experiment [11], in [12] and in experiment [13] was > 100 µM each time. For the same compound, the TGI in [14], in [15], in [16], in experiment [19], in experiment [17] and in experiment [18] was > 100 µM in each case.

As to `C=C1CC(Cn2cc(C)c(=O)[nH]c2=O)(c2ccc(-c3ccccc3)cc2)OC1=O` (stereo not given), the TGI in experiment [1] turned out to be 14.2 µM; in [2] it was 6.76 µM; in [3], 2.89 µM; in experiment [4] it was 6.81 µM; in experiment [5], 2.8 µM; in [6] it was 5.87 µM. The TGI is 3.72 µM in experiment [7]; 17.7 µM in experiment [8]; 2.42 µM in experiment [9]; 5.16 µM in [10]; 5.31 µM in experiment [11]; 3.49 µM in experiment [12]. The TGI in experiment [13] worked out at 2.03 µM; in [14] it was 3.74 µM; in experiment [15], 29.4 µM; in experiment [16] it was 6.65 µM; in [19] it was 16.1 µM; in experiment [17], 3.99 µM. This compound also returned a TGI in [18] of 3.74 µM.

Turning to `COC(=O)NN=C(c1ccc(Cl)cc1)c1ccc(Cl)cc1`, the TGI in experiment [2], in experiment [3], in experiment [4], in [5], in [6] and in [7] was > 100 µM throughout. Besides, the TGI in [8], in experiment [9], in experiment [10], in experiment [11], in experiment [12] and in experiment [13] was > 100 µM in each case. Besides, the TGI in [14], in experiment [19], in experiment [17] and in [18] was > 100 µM each time.

As to `N#CC1CCN2N=C(c3ccccc3)SC12c1ccccc1` (stereo not given), the TGI in experiment [1] is > 100 µM; in [2], > 100 µM; in experiment [3], > 100 µM; in experiment [4], > 100 µM; in experiment [5], 83.4 µM; in experiment [6] it was > 100 µM. Moreover, the TGI in experiment [7], in [8], in experiment [9], in [10], in [11] and in [12] was > 100 µM throughout. The TGI in experiment [13], in experiment [14], in [15], in [16], in experiment [19] and in [17] was > 100 µM throughout. Also, in [18], the TGI was > 100 µM.

For `CC(=O)Nc1cc2c(cc1O)CC[C@@H]1[C@@H]2CC[C@]2(C)[C@@H](O)CC[C@@H]12`, the TGI in experiment [1] was > 100 µM; in experiment [2], > 100 µM; in experiment [3], 62.2 µM; in [4], > 100 µM; in [5] it was > 100 µM; in experiment [6], > 100 µM. Moreover, the TGI was 54.5 µM in [7]; > 100 µM in experiment [8]; > 100 µM in experiment [9]; > 100 µM in experiment [10]; > 100 µM in [11]; > 100 µM in [12]. In addition, the TGI is > 100 µM in experiment [13]; 50.8 µM in [14]; > 100 µM in experiment [15]; > 100 µM in experiment [16]; > 100 µM in experiment [19]; > 100 µM in experiment [17]. Moreover, the TGI in [18] is > 100 µM. In addition, the GI50 in experiment [13] is 39.8 µM.

Regarding `[N-]=[N+]=Nc1c([N+](=O)[O-])c(Cl)nc2ccccc12`, the TGI was found to be 38.5 µM in [1]; 4.75 µM in [2]; 3.29 µM in [3]; 3.41 µM in experiment [4]; 0.89 µM in experiment [5]; 4.25 µM in experiment [6]. The TGI turned out to be 3.77 µM in [7]; 27.7 µM in [8]; 5.09 µM in [9]; 3.65 µM in experiment [10]; 4.75 µM in [11]; 3.07 µM in [12]. In addition, the TGI in experiment [13] was determined as 3.09 µM; in experiment [14], 6.64 µM; in experiment [15] it was 41.4 µM; in experiment [16], 3.22 µM; in [19] it was 12.4 µM; in experiment [17] it was 6.64 µM. The compound further gave a TGI in experiment [18] of 4.04 µM.

With `CC1C/C(=N\N(C)C)C(C#N)(C#N)C1(C#N)C#N` (stereo not given), the TGI was determined as 43.2 µM in [1]; 25.6 µM in [2]; 5.67 µM in experiment [3]; 13.7 µM in [4]; 6.9 µM in experiment [5]; 83.8 µM in experiment [6]. In addition, the TGI in experiment [7] was 21.1 µM; in experiment [8], > 67.3 µM; in [9] it was 18.7 µM; in experiment [10], 1.32 µM; in [11], 47.2 µM; in [12], 19.7 µM. Also, the TGI in [13] was found to be 38.4 µM; in [14], 37.4 µM; in [15] it was 39.4 µM; in [16] it was 23.1 µM; in experiment [19], 40.1 µM; in experiment [17] it was 43.1 µM. For the same compound, the TGI in experiment [18] came out at 38.8 µM.

Take `CC1(C)CN=C(Nc2ccc(Cl)cc2)S1`: the TGI in experiment [1], in experiment [2], in [3], in experiment [4], in [5] and in experiment [6] was > 100 µM throughout. Besides, the TGI in [7], in experiment [8], in [9], in [10], in experiment [11] and in [12] was > 100 µM each time. For the same compound, the TGI in [13], in experiment [14], in experiment [15], in [16], in experiment [19] and in [17] was > 100 µM throughout. Also, the TGI in experiment [18] is > 100 µM.

Consider `O=C(Nc1ccccc1C(=O)O)/C(=C/c1ccccc1)NC(=O)c1ccccc1`, for which the TGI in experiment [1], in experiment [3], in experiment [4], in experiment [5], in [6] and in experiment [7] was > 100 µM each time. In addition, the TGI in [8], in [9], in [10], in experiment [11], in experiment [12] and in [13] was > 100 µM in each case. Besides, the TGI in [14], in experiment [15], in experiment [16], in experiment [19], in [17] and in [18] was > 100 µM each time.

Regarding `CCOC(=O)c1cc2c([nH]1)C(=O)CC1=C2CCN1Cc1ccccc1`, the TGI in experiment [1] worked out at 34.2 µM; in [2] it was 26.8 µM; in experiment [3], 31.8 µM; in [4] it was 13.2 µM; in [5] it was 17 µM; in experiment [6], 32.3 µM. Also, the TGI in [7] was 21.6 µM; in [8], 37.1 µM; in experiment [9], 30.8 µM; in experiment [10], 28.8 µM; in experiment [11], 47.2 µM; in [12], 29.1 µM. Further, the TGI in experiment [13] is 25.8 µM; in experiment [14], 27.6 µM; in experiment [16] it was 25.6 µM; in [19], 25.4 µM; in [17], 29.6 µM; in experiment [18], 36 µM.

Turning to `O=C(/C=C(\Nc1ccccc1O)c1ccccc1)C(=O)NC12CC3CC(CC(C3)C1)C2`, the TGI in [1], in experiment [2], in experiment [3], in [4], in experiment [5] and in experiment [6] was > 10 µM in each case. Besides, the TGI in experiment [7] is > 10 µM; in experiment [8], > 10 µM; in [9], 5.87 µM; in [10], > 10 µM; in experiment [11], > 10 µM; in experiment [12], > 10 µM. Further, the TGI in [14], in [15], in [16], in [19], in experiment [17] and in experiment [18] was > 10 µM throughout.

Turning to `Cc1ccc(S(=O)(=O)Oc2ccc(OS(=O)(=O)c3ccc(C)cc3)c3c2C(=O)c2ccccc2C3=O)cc1`, the TGI in experiment [2], in [3], in [4], in experiment [5], in experiment [6] and in experiment [7] was > 100 µM throughout. The TGI in experiment [8], in experiment [9], in [10], in experiment [11], in experiment [12] and in experiment [13] was > 100 µM each time. In addition, the TGI in [14], in [15], in experiment [16], in experiment [19], in experiment [17] and in experiment [18] was > 100 µM throughout.

Regarding `COC(=O)C(Cc1ccccc1I)C1=CCC2(CC1)OCCO2` (stereo not given), the TGI was > 100 µM in experiment [1]; > 100 µM in experiment [2]; 63 µM in [3]; 56.5 µM in experiment [4]; 56.8 µM in experiment [5]; 92.7 µM in experiment [6]. Besides, the TGI in [7] was > 100 µM; in [8] it was > 100 µM; in [9], > 100 µM; in experiment [10], > 100 µM; in experiment [11] it was 93.8 µM; in [12] it was 58.7 µM. Moreover, the TGI in experiment [14] was 44.8 µM; in experiment [15], > 100 µM; in experiment [16] it was > 100 µM; in experiment [19], > 100 µM; in experiment [17], 95.1 µM; in experiment [18], > 100 µM.
